Measurements taken from patent publication EP1914235A1, “CHIRAL TETRA-HYDRO BETA-CARBOLINE DERIVATIVES AND APPLICATIONS THEREOF AS ANTIPARASITIC COMPOUNDS” (Université de Lille 2 Droit et Santé, priority 2006, dated 2008).
Converted amounts (≈) assume the structure as drawn. Read-outs that look alike come from different tables or passages of the source.

Legend:
[1] = tested on: Plasmodium berghei ANKA strain; assay: In vivo antiparasitic activity in infected mice (4-day dosing, parasitemia on day 5); settings: mice infected with P. berghei ANKA; for Activity at the dose 10 mg/kg (%): 10 mg/kg every day for 4 days; for Activity at the dose 50 mg/kg (%): 50 mg/kg every day for 4 days
Protocol: Female mice (TFW or BALB/c, specific pathogen free), 18-20 g, or
Infection: Blood was taken from donor mice and diluted in RPMI-1640 medium to a parasitemia of 1% (the equivalent of 1x10^7 infected erythrocytes/ml) whilst kept on ice. An inoculum of 0.2 ml was administered to each mouse by the intravenous route. At 2-4 hours post-inoculation dosing commences.
Evaluation endpoint: On day 5 blood smears of all animals (2 slides/mouse) were prepared, fixed with methanol and stained with 10% Giemsa's stain. Parasitemia was determined microscopically by counting 1000 red blood cells under oil immersion at 1000x magnification.
Each of the tested compounds of formula (I) according to the invention was prepared as a stock solution of 5 mg/ml in 10% DMSO/PBS. Insoluble compounds of formula (I) were milled with stainless steel balls for up to 24 hours to reduce particle size. Fresh dilutions were prepared each day. The route of administration of tested compounds is intra peritoneal (i.p.).
Compounds were formulated at 10 mg/kg or at 50 mg/kg in a standard suspension vehicle (0.5% carboxymethylcellulose, 0.5% benzyl alcohol, 0.4% Tween® 80 in 0.9% NaCl) for both oral and i.p. administration.
Dosing was over a 4 day period as above, and evaluation was also as above.

[2] = tested on: P. falciparum 3D7 clone of NF54; assay: [3H]hypoxanthine drug sensitivity assay, 3D7 clone; type: cell-based; settings: Plasmodium falciparum, read-out: IC50 3D7(µg/ml)
Protocol: (§1) The cultures are naturally asynchronous (65-75% ring stage) and are maintained in continuous log phase growth in RPMI-1640 medium (as developed by Moore et. al. at Roswell Park Memorial Institute, sold by Sigma Aldrich) supplemented with 5% washed human A+ erythrocytes, 25 mM Hepes, […] NaHCO3, and AlbuMAXII (lipid-rich bovine serum albumin) sold GIBCO, Grand Island, NY (CM). All cultures and assays were conducted at 37°C under an atmosphere of 5% CO2 and 5% O2, with a balance of N2.
(§2) The compounds were further diluted to the appropriate concentration using complete medium RPMI-1640 supplemented with 15nM cold hypoxanthine and AlbuMAXII.
Assays were performed in sterile 96-well microtitre plates; each plate contained 100 µl of parasite culture (0.5% parasitemia, 2.5% hematocrit). Each compound was tested in triplicate and parasite growth compared to control and blank (uninfected erythrocytes) wells. After 24h of incubation at 37°C, […] of [^3H]hypoxanthine was added to each well. Cultures were incubated for a further 24 h before they were harvested onto glass-fiber filter mats. The radioactivity was counted using a Wallac Microbeta® 1450 scintillation counter. […] Percentage inhibition was calculated from comparison to blank and control wells, and IC50 values calculated using Microsoft XLFit ® line fitting software (IDBS, UK).
The preliminary screen used the 3D7 strain. The compounds were tested at 6 concentrations (30, 10, 3, 1, 0.3, and 0.1 µg/ml).
(§3) Both the 3D7 clone and the K1 line were used. The compounds were diluted three-fold over at 12 different concentrations with an appropriate starting concentration based on the preliminary screen. The IC50 was determined by a sigmoidal dose response analysis using Microsoft XLFit™ (IDBS, UK).

P. falciparum K1 strain = assay: [3H]hypoxanthine drug sensitivity assay, K1 strain; type: cell-based; settings: Plasmodium falciparum
Protocol: as §1, §2
Assays were performed in sterile 96-well microtitre plates; each plate contained 100 µl of parasite culture (0.5% parasitemia, 2.5% hematocrit). Each compound was tested in triplicate and parasite growth compared to control and blank (uninfected erythrocytes) wells. After 24h of incubation at 37°C, […] of [^3H]hypoxanthine was added to each well. Cultures were incubated for a further 24 h before they were harvested onto glass-fiber filter mats. The radioactivity was counted using a Wallac Microbeta® 1450 scintillation counter. The results were recorded as counts per minute (CPM) per well at each compound concentration, control and blank wells. Percentage inhibition was calculated from comparison to blank and control wells, and IC50 values calculated using Microsoft XLFit ® line fitting software (IDBS, UK).
as §3

[3] = P. falciparum 3D7, sensitive to all anti-malarials, 48 h, [3H]hypoxanthine uptake

Row | Structure (SMILES) | IC50 [2, 3] [µg/mL] | IC50 (P. falciparum K1 strain; K1, read-out: IC50 K1) [µg/mL] | further results
1 | CN(C)c1ccc(CN2CC[C@@H](N3CC(=O)N4[C@H](c5ccc6c(c5)OCO6)c5[nH]c6ccccc6c5C[C@@H]4C3=O)C2)cc1 [Compound 26, (6R,12aR)-6-Benzo[1,3]dioxol-5-yl-2-[(R)-1-(4-dimethylamino-benzyl)-pyrrolidin-3-yl]-2,3,6,7,12,12a-hexahydro-pyrazino[1',2':1,6]pyrido[3,4-b]indole-1,4-dione] | 0.006 (≈ 0.0104 µM) | 0.14 (≈ 0.242 µM) | Activity at the dose 10 mg/kg (%) [1]: 15%; Activity at the dose 50 mg/kg (%) [1]: 17%
2 | CN(CCN1CC(=O)N2[C@H](c3ccc4c(c3)OCO4)c3[nH]c4ccccc4c3C[C@@H]2C1=O)Cc1ccccc1 [Compound 15, (6R,12aR)-6-Benzo[1,3]dioxol-5-yl-2-[2-(benzyl-methyl-amino)-ethyl]-2,3,6,7,12,12a-hexahydro-pyrazino[1',2':1,6]pyrido [3,4-b]indole-1,4-dione] | 0.6 (≈ 1.15 µM) | 0.4 (≈ 0.765 µM) | –
3 | COc1ccc(CN2CC[C@@H](N3CC(=O)N4[C@H](c5ccc6c(c5)OCO6)c5[nH]c6ccccc6c5C[C@@H]4C3=O)C2)cc1 [Compound 31, (6R,12aR)-6-Benzo[1,3]dioxol-5-yl-2-[(R)-1-(4-methoxy-benzyl)-pyrrolidin-3-yl]-2,3,6,7,12,12a-hexahydro-pyrazino[1',2':1,6]pyrido[3,4-b]indole-1,4-dione] | 0.23 (≈ 0.407 µM) | 0.13 (≈ 0.23 µM) | –
4 | O=C1[C@H]2Cc3c([nH]c4ccccc34)[C@@H](c3ccc4c(c3)OCO4)N2C(=O)CN1[C@@H]1CCN(Cc2ccc3c(c2)OCO3)C1 [Compound 33, (6R,12aR)-6-Benzo[1,3]dioxol-5-yl-2-((R)-1-benzo[1,3]dioxol-5-ylmethyl-pyrrolidin-3-yl)-2,3,6,7,12,12a-hexahydro-pyrazino[1',2':1,6]pyrido[3,4-b]indole-1,4-dione] | 0.17 (≈ 0.294 µM) | 0.16 (≈ 0.277 µM) | –
5 | O=C1[C@H]2Cc3c([nH]c4ccccc34)[C@@H](c3ccc4nsnc4c3)N2C(=O)CN1[C@@H]1CCN(Cc2ccccc2)C1 [Compound 70c, (6R,12aR)-6-Benzo[1,2,5]thiadiazol-5-yl-2-((R)-1-benzyl-pyrrolidin-3-yl)-2,3,6,7,12,12a-hexahydro-pyrazino[1',2':1,6] pyrido[3,4-b]indole-1,4-dione] | 0.13 (≈ 0.237 µM) | 0.15 (≈ 0.273 µM) | –
6 | Cn1ccnc1CN1CCC(N2CC(=O)N3[C@H](Cc4c([nH]c5ccccc45)[C@@H]3Cc3ccccc3)C2=O)CC1 [Compound 91t, (6S,12aR)-6-Benzyl-2-[1-(1-methyl-1H-imidazol-2-ylmethyl)-piperidin-4-yl]-2,3,6,7,12,12a-hexahydro-pyrazino-[1',2':1,6]pyrido[3,4-b]indole-1,4-dione] | 4.13 (≈ 7.9 µM) | 4.07 (≈ 7.79 µM) | –
7 | O=C1[C@H]2Cc3c([nH]c4ccccc34)[C@H](Cc3ccccc3)N2C(=O)CN1C1CCN(Cc2ccccc2)CC1 [Compound 89t, (6S,12aR)-6-Benzyl-2-(1-benzyl-piperidin-4-yl)-2,3,6,7,12,12a-hexahydro-pyrazino[1',2':1,6]pyrido[3,4-b]indole-1,4-dione] | 4.17 (≈ 8.04 µM) | 2.47 (≈ 4.76 µM) | –
8 | O=C1[C@H]2Cc3c([nH]c4ccccc34)[C@H](c3ccc4nsnc4c3)N2C(=O)CN1[C@@H]1CCN(Cc2ccccc2)C1 [Compound 70t, (6S,12aR)-6-Benzo[1,2,5]thiadiazol-5-yl-2-((R)-1-benzyl-pyrrolidin-3-yl)-2,3,6,7,12,12a-hexahydro-pyrazino[1',2':1,6] pyrido[3,4-b]indole-1,4-dione] | 0.7 (≈ 1.28 µM) | 0.5 (≈ 0.911 µM) | –
9 | CCN(CC)CCCC(C)Nc1ccnc2cc(Cl)ccc12 (stereo not shown) [Chloroquine, reference compound] | – | – | IC50 (P. falciparum K1 strain; K1): 0.13 to 0.21 µg/mL (≈ 0.406 to 0.656 µM)
10 | Cn1ccnc1CN1CC[C@@H](N2CC(=O)N3[C@H](c4ccc5c(c4)OCO5)c4[nH]c5ccccc5c4C[C@@H]3C2=O)C1 [Compound 28, (6R,12aR)-6-Benzo[1,3]dioxol-5-yl-2-[(R)-1-(1-methyl-1H-imidazol-2-ylmethyl)-pyrrolidin-3-yl]-2,3,6,7,12,12a-hexahydro-pyrazino[1',2':1,6]pyrido[3,4-b]indole-1,4-dione] | 0.09 (≈ 0.167 µM) | 0.07 (≈ 0.13 µM) | Activity at the dose 10 mg/kg (%) [1]: 24%; Activity at the dose 50 mg/kg (%) [1]: 32%
11 | CN(CCCN1CC(=O)N2[C@H](c3ccc4c(c3)OCO4)c3[nH]c4ccccc4c3C[C@@H]2C1=O)Cc1ccccc1 [Compound 17, (6R,12aR)-6-Benzo[1,3]dioxol-5-yl-2-[3-(benzyl-methyl-amino)-propyl]-2,3,6,7,12,12a-hexahydro-pyrazino[1',2':1,6]pyrido [3,4-b]indole-1,4-dione] | 0.98 (≈ 1.83 µM) | 0.19 (≈ 0.354 µM) | –
12 | CN(CCCN1CC(=O)N2[C@@H](c3ccc4c(c3)OCO4)c3[nH]c4ccccc4c3C[C@@H]2C1=O)Cc1ccccc1 [Compound 18, (6S,12aR)-6-Benzo[1,3]dioxol-5-yl-2-[3-(benzyl-methyl-amino)-propyl]-2,3,6,7,12,12a-hexahydro-pyrazino[1',2':1,6]pyrido [3,4-b]indole-1,4-dione] | – | – | IC50 [2]: 1.34 µg/mL (≈ 2.5 µM); IC50 (P. falciparum K1 strain; K1, read-out: IC50 K1 (µg/ml)): 0.28 µg/mL (≈ 0.522 µM)
13 | CC(C)(C)OC(=O)NCCN1CC[C@@H](N2CC(=O)N3[C@H](c4ccc5c(c4)OCO5)c4[nH]c5ccccc5c4C[C@@H]3C2=O)C1 [Compound 35, {2-[(R)-3-((6R,12aR)-6-Benzo[1,3]dioxol-5-yl-1,4-dioxo-3,4,6,7,12,12a-hexahydro-1H-pyrazino[1',2':1,6]pyrido[3,4-b]indol-2-yl)-pyrrolidin-1-yl]-ethyl)-carbamic acid tert-butyl ester] | 0.07 (≈ 0.119 µM) | 0.015 (≈ 0.0255 µM) | –
14 | O=C1[C@H]2Cc3c([nH]c4ccccc34)[C@H](c3ccc(Cl)nc3)N2C(=O)CN1[C@@H]1CCN(Cc2ccccc2)C1 [Compound 84t, (6S,12aR)-2-((R)-1-Benzyl-pyrrolidin-3-yl)-6-(6-chloro-pyridin-3-yl)-2,3,6,7,12,12a-hexahydro-pyrazino[1',2':1,6] pyrido[3,4-b]indole-1,4-dione] | 0.09 (≈ 0.171 µM) | 1.03 (≈ 1.96 µM) | –
15 | O=C1[C@H]2Cc3c([nH]c4ccccc34)[C@@H](c3ccccc3)N2C(=O)CN1C1CCN(Cc2ccccc2)CC1 [Compound 90, (6R,12aR)-2-(1-Benzyl-piperidin-4-yl)-6-phenyl-2,3,6,7,12,12a-hexahydro-pyrazino[1',2':1,6]pyrido[3,4-b]indole-1,4-dione] | 0.48 (≈ 0.951 µM) | 0.3 (≈ 0.594 µM) | –
16 | O=C1[C@H]2Cc3c([nH]c4ccccc34)[C@H](c3ccc4c(c3)OCO4)N2C(=O)CN1[C@@H]1CCN(Cc2ccccc2)C1 [Compound 14, (6S,12aR)-6-Benzo[1,3]dioxol-5-yl-2-((R)-1-benzyl-pyrrolidin-3-yl)-2,3,6,7,12,12a-hexahydro-pyrazino[1',2':1,6]pyrido [3,4-b]indole-1,4-dione] | 0.29 (≈ 0.542 µM) | 1.03 (≈ 1.93 µM) | –
17 | CN(CCN1CC(=O)N2[C@@H](c3ccc4c(c3)OCO4)c3[nH]c4ccccc4c3C[C@@H]2C1=O)Cc1ccccc1 [Compound 16, (6S,12aR)-6-Benzo[1,3]dioxol-5-yl-2-[2-(benzyl-methyl-amino)-ethyl]-2,3,6,7,12,12a-hexahydro-pyrazino[1',2':1,6]pyrido [3,4-b]indole-1,4-dione] | – | – | IC50 [2]: 0.3 µg/mL (≈ 0.574 µM); IC50 (P. falciparum K1 strain; K1, read-out: IC50 K1 (µg/ml)): 0.6 µg/mL (≈ 1.15 µM)
